# Measured values from US7282599B2, “Dithiocarbamate antiviral agents and methods of using same” (Avir Green Hills Biotechnology Research Devlopment Trade AG, priority 2001, dated 2007).
# pEC50: −log10 of the molar value.
# Columns and labels:
# [1] = system: HeLa cells; experiment: Cell proliferation assay on uninfected HeLa cells (toxicity control); conditions: for toxicity of the concentration used to inhibit the viral infections: HeLa cells; for effects on uninfected cells (viability): compound alone, uninfected HeLa cells
# [2] = system: mengovirus virions; conditions: Calvert, Interferon Research 1990; cited from earlier work
# [3] = system: HRV2; experiment: Cell Titer 96 cell proliferation assay, viability of HRV2-infected HeLa cells; assay type: cell-based, human rhinovirus; conditions: for viability of infected cells: HeLa cells, HRV2 20 TCID50/cell, 24 hours after infection, even slight concentrations; for protective effect during viral proliferation: determined as described in Example 3, HRV2-infected HeLa cells
# Text: A cell proliferation assay was done to test the effect of PDTC or DDTC on the viability of the cells during a viral infection.
# [4] = system: respiratory RNA viruses; experiment: Action of antioxidants against respiratory RNA viruses (summary statement); assay type: cell-based
# [5] = system: influenza virus; conditions: Knobil et al., Am. J. Physiol. 1998; cited from earlier work
# [6] = system: HRV2; experiment: Crystal violet staining of cell lawn of HRV2-infected HeLa cells; assay type: cell-based, human rhinovirus; conditions: HRV2 100 TCID50 per cell, compound added 1 hour after infection, stained after 24 hours
# [7] = system: BHK-21 cells; conditions: PDTC 0.975 to 1000 μM, 4 days at 37° C.
# [8] = system: FMV virus O-Manisa; experiment: microbe, parasite or virus in culture; assay type: cell-based, foot and mouth disease virus
# [9] = system: HRV serotypes 1A, 2, 14 and 16; experiment: Virus progeny titer (TCID50 test) in supernatants of HRV-infected HeLa cells; assay type: cell-based, human rhinovirus; conditions: 20 TCID50 per cell, PDTC 125 μm
# Method: PDTC was added after infection of cells with various HRV serotypes to test the effectiveness during infections by HRV. HeLa cells were infected with HRV serotypes 1A, 2, 14 and 16 with 20 TCID50 (tissue culture infectious dose 50) per cell. PDTC was added at the same time to a concentration of 125 μm in the medium. Excess virus was removed 4 hours after infection, while PDTC was added to the fresh medium. 24 hours (FIG. 1, top) and 48 hours (FIG. 1, bottom) after the infection (p. I.), the supernatants were collected and the amount of virus progeny was determined by TCID50 tests. Treatment of cells with PDTC reduced the virus titer (vt) by 10^3 after 24 hours (FIG. 1, top).
# [10] = system: HRV2; experiment: Time of addition, viral titers in supernatants of HRV2-infected cells; assay type: cell-based, human rhinovirus
# Method: Similar results were obtained if the viral titers (vt) were determined in the supernatants of infected and PDTC-treated cells (see FIG. 4B). Addition of PDTC up to four hours after infection reduced the titer of the HRV2 produced by 10^3.
# [11] = system: EMC virus; experiment: Mice infected intraperitoneally with EMC virus, intraperitoneal treatment; assay type: in vivo, C57B16 mice; conditions: 50 μl of 50 mM PDTC per day i.p.
# Method: C57B16 mice were infected intraperitoneally with 10 TCID50 of EMC virus. Then, the control group was treated intraperitoneally once daily with PBS. Two other groups were treated with 50 μl of 50 mM PDTC per day. Treatment of one group (PDTC) was started simultaneously with the infection, while treatment of the other group (PDTC 24 hpi) was started only 24 hours after the infection.
# [12] = system: HRC serotypes 1A, 2, 14 and 16; experiment: Time of addition, proliferation assay of HRV-infected cells; assay type: cell-based, human rhinovirus; conditions: PDTC 125 μM, 20 TCID50 per cell
# Method: To determine the stage of the viral life cycle attacked by PDTC, PDTC was added at various times following virus infection with 20 TCID50 per cell, and proliferation assays were done. […] This effect is also not specific for a single serotype, as HRC serotypes 1A, 2, 14 and 16 were used. Only PDTC treatment (125 μM) of the cells more than 8 hours after infection reduced the protective effect.
# [13] = system: A/PR8/34; experiment: microbe, parasite or virus in culture; assay type: cell-based, influenza A virus; conditions: 4 days
# [14] = system: FSME virus (Neudörfel); experiment: FSME virus proliferation in suspended cells; assay type: cell-based; conditions: same concentrations, 0.975 to 1000 μM
# Method: Similarly, we investigated whether PDTC can affect virus proliferation in suspended cells. The same concentrations as above were tested.
# [15] = system: influenza virus; experiment: Mice inoculated intranasally with lethal dose of influenza virus, intranasal treatment; assay type: in vivo, C57/BL6 mice; conditions: 25 μl 600 mM PDTC intranasally
# Method: Ten C57/BL6 mice were inoculated intranasally with a lethal dose (50 μl 10^7 pfU). One hour later, they were treated intranasally with 25 μl 600 mM PDTC or with 25 μl PBS. The mice were examined and treated every 12 hours for the first 48 hours and then every 24 hours. The weights of the mice were determined and reported in % of the initial weight (% w) (FIG. 11A). […] All the mice treated with PBS (diamonds) died within 12 days after the infection (% s=% surviving).
# [16] = system: equine rhinitis A virus (ERAV); assay type: cell-based; conditions: vero cells, 10 TCID50 ERAV per cell, PDTC 1 mM-50 μM, 24 hours after infection
# Method: The reduction of ERAV viral propagation by addition of PDTC was investigated as follows: vero cells were infected with 10 TCID50 ERAV per cell. At the same time, PDTC was added at different concentrations (1 mM-50 μM). The inoculum was removed 4 hours after infection, and fresh medium with PDTC was added. The supernatants were removed 24 hours after the infection, and the viral titers were determined in a standard plate assay.
# [17] = system: influenza A/PR8/34 and influenza A/Vienna/47/96; experiment: microbe, parasite or virus in culture; assay type: cell-based, influenza A virus
# [18] = system: eIF4GI; experiment: Western blot of eIF4GI splitting by viral 2A protease in HRV2-infected HeLa cells; assay type: cell-based, human rhinovirus; conditions: HRV2 100 TCID50 per cell
# Method: Various proteolytic activities were determined to examine the course of a rhinoviral infection in the presence and absence of PDTC. Enzymatic splitting of the cellular translation initiation factors 4GI (eIF4GI) and 4GII by viral 2A protease, ending host cell protein synthesis, is one characteristic proteolytic activity that occurs in the course of infection with rhinoviruses and enteroviruses. Depending on the HRV serotype, eIF4G proteins are split in an early stage of infection. Another splitting activity during a rhinoviral infection, only recently described, is splitting of the intermediary filament protein cytokeratin 8. This splitting also depends on the 2A protease, but occurs at a later stage of the infection. In order to investigate the effect of a PDTC treatment on the course of a virus infection, a Western blot analysis was done to analyze these 2A protease substrates.
# Medium was removed at the indicated times for the Western blot analysis. The cells were lysed by adding 100 μl of protein buffer (8% sodium dodecyl sulfate, 20% β-mercapto-ethanol, 20% glycerol, 0.04% bromphenol blue). 20 μl protein extract was separated by SDS-PAGE on each track, and blotted onto PVDF membranes. […] The molecular weights were determined by using a prestained SDS-7B marker (Sigma).
# Splitting of eIF4GI can be detected 4 hours after infection in HeLa cells infected with HRV2 (100 TCID50 per cell). […]
# [19] = system: A/Vienna/47/96; experiment: microbe, parasite or virus in culture; assay type: cell-based, influenza A virus; conditions: 4 days
# [20] = system: FMV virus O-Manisa; assay type: cell-based, foot and mouth disease virus; conditions: IB-RS-2 cells, 0.001 TCID50 per cell, PDTC up to 200 μM, 24 hours after infection
# [21] = system: rhinoviral proteins VP1, VP2 and VP3; experiment: Western blot of HRV2 capsid proteins in infected HeLa cells; assay type: cell-based, human rhinovirus; conditions: HRV2 100 TCID50 per cell
# Text: To determine the effect of PDTC on the expression of viral proteins, capsid proteins of HRV2 were detected by Western blot analysis in protein extracts from HRV2-infected HeLa cells (100 TCID50 per cell) (see FIG. 6). The Western blot analysis was done as described above in Example 5, with use of a polyclonal rabbit antiserum against HRV2. Significant amounts of the rhinoviral proteins VP1, VP2 and VP3 were detected in untreated cells six hours after infection.
# [22] = system: HRV2, HRV14, HRV1A and HRV16; experiment: HRV-induced cytopathic effects (morphology) in HeLa cells; assay type: cell-based, human rhinovirus
# Method: Morphological changes in the cells, called “cytopathic effects” (CPE) occur in the late stages of a rhinoviral infection. These HRV induced CPE are characterized as cell rounding, shrinkage, deformation of the nucleus and chromatin condensation. When HeLa cells are infected with HRV2, HRV14, HRV1A and HRV16 at 100 TCID50 per cell, a distinct cytopathic effect is visible after 8 hours post-infection.
# [23] = system: human immunodeficiency virus; conditions: asymptomatic and minimally symptomatic HIV patients, HIV87 Study Group 1993; cited from earlier work
compound,measurement,setting,value
"CCN(CC)C(=S)S [DDTC, N, N-diethyldithiocarbamate]",toxicity of the concentration used to inhibit the viral infections,[1],exhibits no toxicity
same,effects on uninfected cells (viability),[1],only minor effects on uninfected cells
same,action on mengovirus virions,[2],inactivates mengovirus virions
same,viability of infected cells,[3],significantly increased
"CC(=O)N[C@@H](CS)C(=O)O [NAC, N-acetylcysteine, reference compound]",action against respiratory RNA viruses,[4],no action at all
same,inhibition of influenza virus infection or replication,[5],neither NAC nor PDTC inhibits influenza virus infection or replication
same,prevention of destruction of the cell lawn by HRV2 infection,[6],not
"S=C(S)N1CCCC1 [PDTC, pyrrolidine dithiocarbamate]",toxic effects on cell monolayer (microscopic examination),[7],no indications of toxic effects
same,protection against the cytopathic effect of the virus,"[8]; 600 μM PDTC, IB-RS-2 cells, 0.1 TCID50 per cell, 24 hours",100%
same,pEC50,"[8]; Foot-and-mouth disease virus, 24 h, read-out: concentration range for 50% reduction of infected wells",3.82 to 4.12
same,reduction of the virus titer (vt),[9]; supernatants 24 hours after infection,10^3
same,virus titer in supernatants,[9]; supernatants 48 hours after infection,significant reduction of the virus titer
same,viral titers produced,[10]; PDTC treatment started only 6 hours after infection,significantly reduced
same,reduction of the titer of the HRV2 produced,[10]; addition of PDTC up to four hours after infection,10^3
same,changes of the mouse weights after the beginning of the infection,[11]; started with infection or 24 hours after,no difference in treated and untreated mice
same,average time to death for the infected mice,"[11]; every group: PBS, PDTC, PDTC 24 hpi",5.5 days
same,time of PDTC treatment after infection at which the protective effect was reduced,[12],more than 8 hours
same,time of addition offering the best protection against virus induced loss of proliferation,[12],within the first six hours after infection
same,inhibition at 1200 µM,"[13]; Influenza A virus, PR8, 96 h, PDTC 1200 μM, read-out: inhibition (TCID50 assay)",> 99.9%
same,reduction of TCID50,[13]; PDTC 300 μM,76.4%
same,reduction of virus proliferation in suspended cells,[14],no indication of reduction of virus proliferation
same,weight of infected mice,[15]; 7 days after the infection,gained weight
same,survival of infected mice,[15]; from one hour after lethal inoculation,all the mice treated with PDTC (squares) survived the virus infection
same,virus titer (vt) in the supernatant in comparison to untreated cells,[16],decreases
same,pEC50,"[17]; Influenza A virus, PR8, Vero, 96 h, read-out: PDTC concentration for 50% reduction of positive wells",4.00 to 4.30
same,PDTC concentration for complete inhibition of cytopathic effects,"[17]; all viruses, vero cells",600 µM
same,splitting of eIF4GI,[18]; 4 and 8 hours after infection,No splitting of eIF4GI can be detected
same,splitting of eIF4GI,[18]; about 24 hours after infection,slight eIF4GI splitting can be detected
same,toxicity of the concentration used to inhibit the viral infections,[1],exhibits no toxicity
same,effects on uninfected cells (viability),[1],only minor effects on uninfected cells
same,viability of infected cells,[3],significantly increased
same,inhibition at 1200 µM,"[19]; Influenza A virus, 96 h, PDTC 1200 μM, read-out: inhibition (TCID50 assay)",> 99.9%
same,reduction of TCID50,[19]; PDTC 300 μM,82.2%
same,inhibition of influenza virus infection or replication,[5],neither NAC nor PDTC inhibits influenza virus infection or replication
same,reduction of virus titer compared with the control sample,[20],more than 2 log steps
same,"expression of VP1, VP2 and VP3",[21]; about 24 hours after infection,Weak expression
same,"expression of capsid proteins VP1, VP2 and VP3",[21]; within the first 8 hours after infection,prevented expression of those capsid proteins
same,morphology of infected cells,"[22]; 125 μM PDTC, 8 hours after the infection",cannot be distinguished from the morphology of non-infected (n. i.) cells
same,appearance of cytopathic effects,"[22]; HeLa cells, 100 TCID50 per cell, PDTC added during the infection",prevents the appearance of these cytopathic effects
same,prevention of destruction of the cell lawn by HRV2 infection,[6],can prevent that effect
Cc1c(C)c2c(c(C)c1O)CCC(C)(C(=O)O)O2 (centres unmarked) [Trolox],protective effect during viral proliferation,[3],none of these antioxidants had any protective effect
O=C1O[C@H]([C@@H](O)CO)C(O)=C1O [Vitamin C],action against respiratory RNA viruses,[4],no action at all
same,protective effect during viral proliferation,[3],none of these antioxidants had any protective effect
CCN(CC)C(=S)S [dithiocarb],cure or improvement of AIDS patients,[23],does not cause cure or improvement of the patients
OCCS [β-mercaptoethanol],action against respiratory RNA viruses,[4],no action at all
same,protective effect during viral proliferation,[3],none of these antioxidants had any protective effect
Vitamin E,action against respiratory RNA viruses,[4],no action at all
